Activity calls are given as the source filed them. The calls are words filed in the database; no cut-off is given here.
What was measured:
[1] = target: T1, S-adenosylmethionine synthase isoform type-2 (Homo sapiens, UniProt P31153); assay: Inhibition of […] in MTAP-null human HCT-116 cells after 72 hrs by LC-MS/MS analysis; type: cell-based, HCT116-MTAP null
Target sequence in this assay (P31153 whole entry, canonical isoform): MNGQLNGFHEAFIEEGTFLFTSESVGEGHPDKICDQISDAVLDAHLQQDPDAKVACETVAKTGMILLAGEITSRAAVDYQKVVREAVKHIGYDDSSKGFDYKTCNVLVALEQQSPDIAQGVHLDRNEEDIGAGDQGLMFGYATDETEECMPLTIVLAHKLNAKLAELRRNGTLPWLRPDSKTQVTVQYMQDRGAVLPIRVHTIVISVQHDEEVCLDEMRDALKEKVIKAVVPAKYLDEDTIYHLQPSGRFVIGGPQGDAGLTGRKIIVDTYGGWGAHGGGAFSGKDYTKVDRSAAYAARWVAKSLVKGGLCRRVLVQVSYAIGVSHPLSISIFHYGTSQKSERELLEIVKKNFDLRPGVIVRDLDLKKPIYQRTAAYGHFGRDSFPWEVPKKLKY

[2] = target: T1, S-adenosylmethionine synthase isoform type-2; assay: Inhibition of […] in MTAP-null human HCT-116 cells after 72 hrs by LC-MS/MS analysis relative to control; type: cell-based; conditions: HCT116-MTAP null
Target sequence in this assay (P31153 whole entry, looked up, canonical isoform): as the sequence (P31153 whole entry, canonical isoform) above

[3] = target: T1, S-adenosylmethionine synthase isoform type-2; assay: Inhibition of recombinant human MAT2A expressed in baculovirus infected Sf9 cells assessed as S-adenosyl methionine production using L-methionine as substrate preincubated for 60 mins followed by substrate addition and measured after 60 mins in presence of ATP
Target sequence in this assay (P31153 whole entry, canonical isoform): as above

[4] = target: T1, S-adenosylmethionine synthase isoform type-2; assay: Inhibition of recombinant human MAT2A expressed in baculovirus infected Sf9 cells assessed as S-adenosyl methionine production using L-methionine as substrate preincubated for 60 mins followed by substrate addition and measured after 60 mins in presence of ATP relative to control
Target sequence in this assay (P31153 whole entry, looked up, canonical isoform): as the sequence (P31153 whole entry, canonical isoform) above

[5] = Ratio of drug concentration in brain to plasma of mouse at 10 mg/kg, po measured at 1 to 4 hrs post dose; type: ADME, organism-based; conditions: brain and plasma, time 1-4 hrs
PXR (NR1I2) = target: T2, PXR (NR1I2) (Homo sapiens, UniProt O75469); assay: Transactivation of human PXR transfected in HepG2 cells assessed as CYP450 induction by measuring fold activation at 10 uM by luciferase reporter gene assay; type: ADME, cell-based; conditions: HepG2 cells transfected with human PXR, read-out: FC
T2 sequence (O75469 whole entry): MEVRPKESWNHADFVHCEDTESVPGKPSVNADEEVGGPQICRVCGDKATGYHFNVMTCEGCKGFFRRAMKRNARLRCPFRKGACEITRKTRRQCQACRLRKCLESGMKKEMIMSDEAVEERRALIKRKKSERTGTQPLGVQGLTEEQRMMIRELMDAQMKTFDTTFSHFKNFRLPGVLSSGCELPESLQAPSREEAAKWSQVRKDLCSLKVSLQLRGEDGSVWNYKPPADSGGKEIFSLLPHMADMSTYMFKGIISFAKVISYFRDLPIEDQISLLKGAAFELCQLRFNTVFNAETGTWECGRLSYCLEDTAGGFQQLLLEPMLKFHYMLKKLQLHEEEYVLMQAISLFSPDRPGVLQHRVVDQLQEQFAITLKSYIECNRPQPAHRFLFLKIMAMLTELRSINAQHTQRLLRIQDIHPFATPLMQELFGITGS

HCT116-MTAP null = assay: Antitumor activity against human HCT116-MTAP null cells xenografted in nu/nu mouse assessed as inhibition of tumor […] at 10 to 30 mg/kg, po QD for 21 days; type: functional, organism-based; conditions: dose 10-30 mg/kg, time 21.0 day
[6] = Inhibition of MAT2A in human HCT116-MTAP null cells xenografted po dosed nu/nu mouse model assessed as plasma exposure required for reduction in periphery SAM level; type: functional
[7] = In vivo inhibition of MAT2A in human HCT116-MTAP null cells xenografted po dosed nu/nu mouse model assessed as plasma exposure required for reduction in tumor SAM level; type: functional
KP-4 = assay: Antitumor activity against human KP-4 cells xenografted in CB17-SCID mouse assessed as tumor growth inhibition […] at 30 to 60 mg/kg, po QD for 13 days; type: functional, organism-based; conditions: dose 30-60 mg/kg, time 13.0 day

| Compound | IC50 [1] [nM] | Imax [2] [%] | IC50 [3] [nM] | Imax [4] [%] | also measured |
| --- | --- | --- | --- | --- | --- |
| COc1ccc(-n2cc3cnc(NCC(F)(F)F)nc3c(-c3ccc(Cl)cc3)c2=O)cc1 | 113 | 83 |  |  |  |
| O=c1c(-c2ccc(Br)cc2)c2nc(NCC(F)(F)F)ncc2cn1-c1ccc2ncccc2c1 | 46 | 84 |  |  | Kp [5]: 0.1; fold induction at 10 µM (PXR (NR1I2)): 5.3 |
| COc1ccc(N2Cc3cnc(NCC4CC4)nc3C3(CCN(Cc4cc[nH]c4)C3)C2=O)cc1 (configuration not stated) |  |  | 2010 | 34 |  |
| COc1ccc(-n2cc3cnc(NCC4CC4)nc3c(-c3ccc(Br)cc3)c2=O)cc1 |  |  | 54 | 88 |  |
| COc1ccc(N2Cc3c(C)nc(NCC4CC4)nc3C3(CCN(Cc4ccccc4F)C3)C2=O)cc1 (configuration not stated) |  |  | 250 | 50 |  |
| COc1ccc(N2Cc3cnc(NCC4CC4)nc3C3(CCN(Cc4cscn4)C3)C2=O)cc1 (configuration not stated) |  |  | 610 | 62 |  |
| O=c1c(-c2ccc(Cl)cc2)c2nc(NCC(F)(F)F)ncc2cn1-c1ccc2ncccc2c1 | 79 | 83 |  |  |  |
| COc1ccc(N2Cc3cnc(NCC4CC4)nc3C3(CCN(Cc4ccon4)C3)C2=O)cc1 (configuration not stated) |  |  | 530 | 50 |  |
| Cn1cc2cc(-n3cc4ccc(OCC(F)F)nc4c(-c4ccc(Cl)cc4)c3=O)ccc2n1 | 13 | 88 |  |  | fold induction at 10 µM (PXR (NR1I2)): 3.8 |
| COc1ccc(N2Cc3cnc(NCC4CC4)nc3C3(CCN(Cc4cc[nH]n4)C3)C2=O)cc1 (configuration not stated) |  |  | 690 | 88 |  |
| Cn1cnc2ccc(-n3cc4cnc(NCC(F)(F)F)nc4c(-c4ccc(Cl)cc4)c3=O)cc21 | 31 | 80 |  |  |  |
| Cn1cc2cc(-n3cc4cnc(NCC(F)(F)F)nc4c(-c4ccc(Cl)cc4)c3=O)ccc2n1 | 14 | 80 |  |  | Activity (HCT116-MTAP null): Active; fIC50 [6]: 2 nM; fIC50 [7]: 1.8 nM |
| COc1ccc(N2Cc3cnc(NCC4CC4)nc3C3(CCN(Cc4ccccc4F)C3)C2=O)cc1 (configuration not stated) |  |  | 320 | 38 |  |
| COc1ccc(-n2cc3cnc(NCC(F)(F)F)nc3c(-c3ccc(Br)cc3)c2=O)cc1 | 34 | 84 | 22 | 94 | fIC50 [7]: 10.2 nM; Activity (KP-4): Active |
| Cn1cc2cc(-n3cc4ccc(NCC(F)(F)F)nc4c(-c4ccc(Cl)cc4)c3=O)ccc2n1 | 11 | 82 |  |  |  |

Further lines, with some results ahead:

| IC50 [1] [nM] | Imax [2] [%] | IC50 [3] [nM] | Imax [4] [%] | Compound | also measured |
| --- | --- | --- | --- | --- | --- |
|  |  | 7200 | 46 | Cc1nc(NCC2CC2)nc2c1COCC21CCN(Cc2ccccc2F)C1 (configuration not stated) |  |
| 32 | 82 |  |  | Cn1cc2cc(-n3cc4ccc(OCC(F)(F)F)nc4c(-c4ccc(Cl)cc4)c3=O)ccc2n1 |  |
|  |  | 34 | 91 | CCNc1ncc2cn(-c3ccc(OC)cc3)c(=O)c(-c3ccc(Br)cc3)c2n1 |  |
|  |  | 510 | 38 | COc1ccc(N2Cc3cnc(NCC4CC4)nc3C3(CCN(Cc4ccsc4)C3)C2=O)cc1 (configuration not stated) |  |
| 10 | 81 |  |  | CCNc1ccc2cn(-c3ccc4nn(C)cc4c3)c(=O)c(-c3ccc(Cl)cc3)c2n1 |  |
|  |  | 410 | 38 | COc1ccc(N2Cc3cnc(NCC4CC4)nc3C3(CCN(Cc4cnc(N)s4)C3)C2=O)cc1 (configuration not stated) |  |
| 21 | 80 |  |  | Cc1nc2ccc(-n3cc4cnc(NCC(F)(F)F)nc4c(-c4ccc(Cl)cc4)c3=O)cc2n1C |  |
|  |  | 48 | 73 | CCCNc1ncc2cn(-c3ccc(OC)cc3)c(=O)c(-c3ccc(Br)cc3)c2n1 |  |
|  |  | 3310 | 71 | COc1ccc(-n2cc3cnc(N(C)CC(F)(F)F)nc3c(-c3ccc(Br)cc3)c2=O)cc1 |  |
| 23 | 89 |  |  | CCOc1ccc2cn(-c3ccc4nn(C)cc4c3)c(=O)c(-c3ccc(Cl)cc3)c2n1 | fIC50 [7]: 9.8 nM |
|  |  | 325 | 69 | COc1ccc(-n2cc3cnc(NCCC(F)(F)F)nc3c(-c3ccc(Br)cc3)c2=O)cc1 |  |
|  |  | 7830 | 60 | COc1ccc(N2Cc3cnc(NCC4CC4)nc3C3(CCN(Cc4cn[nH]c4)C3)C2=O)cc1 (configuration not stated) |  |
| 101 | 76 |  |  | Cn1cc2cc(-n3cc4ccc(CCC(F)(F)F)nc4c(-c4ccc(Cl)cc4)c3=O)ccc2n1 |  |
